Source: PMC10154249, “Unique progerin C-terminal peptide ameliorates Hutchinson–Gilford progeria syndrome phenotype by rescuing BUBR1” (Nature Aging, 2023)
Entries after “also recorded” stand apart in the source; their conditions may differ.

Experiments:
senescent IMR90 cells [1] = assay: Ki67 immunofluorescence of DNA damage-induced senescent IMR90 cells; type: cell-based, human; details: UPCP
Experimental: (§1) Fibroblasts from patients with HGPS were obtained from The Progeria Research Foundation Cell and Tissue Bank (http://www.progeriaresearch.org). The following fibroblasts were used: HGADFN003, HGADFN167, HGMDFN090 and HGFDFN168. Human dermal fibroblasts (GM00038 and AG09602) were obtained from Coriell Cell Repository (https://catalog.coriell.org). These cells were characterized by DNA fingerprinting and isozyme detection and were tested by a MycoBlue Mycoplasma Detector (Vazyme Biotech) to exclude mycoplasma contamination before the experiments. […] HGADFN003, HGADFN167, HGMDFN090, HGFDFN168, GM00038 and AG09602 were cultured in DMEM medium with 15% (v/v) fetal bovine serum (VivaCell). All cell lines were grown at 37 °C with 5% CO2 and IMR90, CRL-1474, HGADFN003, HGADFN167, HGMDFN090, HGFDFN168, GM00038 and AG09602 were cultured with 5% O2. For bleomycin-induced senescence, IMR90 cells were incubated with the culture medium containing 20 μg ml^–1 Bleomycin (Selleck, catalog no. S1214) for 2 h and analyzed 10 days later, or as otherwise indicated. For doxorubicin-induced senescence, IMR90 cells were treated twice with 100 nM Doxorubicin (Selleck, catalog no. S1208) with a 2 day interval and analyzed 10 days later, or as otherwise indicated. For ionizing radiation (IR)-induced senescence, IMR90 cells were exposed to 10 Gy Gamma rays, and analyzed 10 days later, or as otherwise indicated, the control IMR90 cells were mock irradiated. For etoposide-induced senescence, IMR90 cells incubated with the culture medium containing 10 μM Etoposide (Sigma, catalog no. E1383) for 48 h and analyzed 10 days later, or as otherwise indicated.
(§2) Immunofluorescence was performed as described previously. Cells were plated on cover slips in 12-well plates, left overnight before the treatment. Cells were fixed in 1% formaldehyde in culture medium for 10 min at 37 °C and permeabilized with 0.2% Triton X-100 in PBS for 10 min at room temperature. Cells were washed twice in PBS and blocked for 1 h with 5% BSA in PBS and then incubated with primary antibodies at 4 °C overnight, washed three times in PBS and incubated with secondary antibodies for 1 h at room temperature. Cell nuclei were counterstained with a 500 nM concentration of 4,6-diamidino-2-phenylindole (DAPI) (Sigma). Images were acquired by a fluorescence microscope (OLYMPUS FV-1000, Carl Zeiss LSM880 or Leica DMi8) and analyzed with software NIS-Elements AR v.5.0.1 (Nikon), FLUOVIEW v.4.2b (OLYMPUS), ZEN v.2.3 SP1 (Carl Zeiss) and Leica Application Suite X v.3.6.0.24 (Leica). Cells were quantified by investigators who were blinded to the identity of the analyzed cell.

senescent IMR90 cells [2] = assay: CCK8 cell viability of DNA damage-induced senescent IMR90 cells; type: cell-based, human; details: IMR90, 10 days after bleomycin, doxorubicin, ionizing radiation or etoposide
Experimental: as §1, with “All cell lines were grown at 37 °C with 5% CO2 and IMR90, CRL-1474, HGADFN003, HGADFN167, HGMDFN090, HGFDFN168, GM00038 and AG09602 were cultured with 5% O2.” left out, “For etoposide-induced senescence, IMR90 cells incubated with the culture medium containing 10 μM Etoposide (Sigma, catalog no. E1383) for 48 h and analyzed 10 days later, or as otherwise indicated.” left out
Cell viability was assessed using the Cell Counting Kit-8 (CCK8) (APE, catalog no. k1018). […]

IMR90 cells [3] = assay: Ki67 immunofluorescence of IMR90 cells; type: cell-based, human
Experimental: as §2

IMR90-progerin cells = assay: γH2AX foci in IMR90-progerin cells; type: cell-based, human; details: for γH2AX foci per cell, n>10 / γH2AX foci per cell, n≤10: IMR90-Flag-progerin+UPCP
Experimental: as §2

[4] = test system: progerin–PTBP1 interaction; assay: CoIP of progerin and PTBP1 in HEK-293T cells; type: cell-based; details: CoIP in HEK-293T; HGPS cells
Experimental: Detailed descriptions of CoIP were described previously[55],[56]. Cells were harvested and washed three times in cold PBS, then lysed in CoIP buffer (25 mM Tris-HCl (pH 7.5), 150 mM KCl, 5 mM EDTA, and 0.5% NP-40) plus protease inhibitor cocktail tablet (Roche). Incubate on ice and shock lysates on the vortex shaker 15 times for 30 s each. Microcentrifuge in 12,000g for 15 min at 4 °C, collect the supernatant, and incubate with 3 μg primary antibodies with gentle shaking overnight at 4 °C, followed by adding 20–40 μl Pure Proteome Protein A/G Mix Magnetic Beads (Millipore, catalog no. […]02) for 3 h. Wash the beads three times with 1 ml CoIP buffer for 8 min each, resuspend in 50 μl 1× loading buffer, and incubate at 100 °C for 8 min. Throw beads away and analyze by immunoblotting.

IMR90 cells [5] = assay: CCK8 cell viability of IMR90 cells; type: cell-based, human; details: CCK8, UPCP 0, 10, 20, 30 μM, 0–72 h (also Ki67, CyclinA2, survival rate)
Experimental: Cell viability was assessed using the Cell Counting Kit-8 (CCK8) (APE, catalog no. k1018). The cells were plated in triplicate in 96-well plates (typically 10,000 cells per 100 μl per well) and were incubated with fresh medium for 24 h. Then, the cells were incubated with different concentrations (0 μM, 10 μM, 20 μM, 30 μM) of UPCP for 0 h, 24 h, 48 h or 72 h. CCK8 solution (10 μl) was added to the well for a 2 h incubation at 37 °C. Absorbance was measured at 450 nm with a 96-well plate reader (Tecan Infinite M NANO^+). Data were analyzed and further processed in i-control v.2.0 and GraphPad Prism v.7.

PTBP1 in HGADFN003 cells = assay: PTBP1 nuclear membrane localization in HGADFN003 cells; type: cell-based, human; details: HGADFN003, UPCP
Experimental: as §2

Which results are given for “H-YGRKKRRQRRRYNLRSRTVLCGTCGQPADKASASGSGAQSPQNCSIM-OH (cysteines drawn unpaired) [UPCP, unique progerin C-terminal peptide]”?
Ki67 positive cells (senescent IMR90 cells [1]; BLM (bleomycin 20 μg/mL 2 h), replicate 1): 14.5%; Ki67 positive cells (senescent IMR90 cells [1]; BLM (bleomycin 20 μg/mL 2 h), replicate 2): 18.5%; Ki67 positive cells (senescent IMR90 cells [1]; BLM (bleomycin 20 μg/mL 2 h), replicate 3): 21.5%; Ki67 positive cells (senescent IMR90 cells [1]; Dox (doxorubicin 100 nM twice), replicate 1): 14%; Ki67 positive cells (senescent IMR90 cells [1]; Dox (doxorubicin 100 nM twice), replicate 2): 22%; Ki67 positive cells (senescent IMR90 cells [1]; Dox (doxorubicin 100 nM twice), replicate 3): 19%; Ki67 positive cells (senescent IMR90 cells [1]; Eto (etoposide 10 μM 48 h), replicate 1): 18.5%; Ki67 positive cells (senescent IMR90 cells [1]; Eto (etoposide 10 μM 48 h), replicate 2): 20%; Ki67 positive cells (senescent IMR90 cells [1]; Eto (etoposide 10 μM 48 h), replicate 3): 14.5%; Ki67 positive cells (senescent IMR90 cells [1]; IR (10 Gy), replicate 1): 19%; Ki67 positive cells (senescent IMR90 cells [1]; IR (10 Gy), replicate 2): 15.5%; Ki67 positive cells (senescent IMR90 cells [1]; IR (10 Gy), replicate 3): 17%; proliferation of DNA damage-induced senescent cells (senescent IMR90 cells [2]): did not cause DNA damage-induced senescent cells to proliferate; Ki67 positive cells (IMR90 cells [3]; IMR90, replicate 1): 73%; Ki67 positive cells (IMR90 cells [3]; IMR90, replicate 2): 84%; Ki67 positive cells (IMR90 cells [3]; IMR90, replicate 3): 87%; γH2AX foci per cell, n>10 (IMR90-progerin cells; replicate 1): 75%; γH2AX foci per cell, n≤10 (IMR90-progerin cells; replicate 1): 25%; γH2AX foci per cell, n>10 (IMR90-progerin cells; replicate 2): 69%; γH2AX foci per cell, n≤10 (IMR90-progerin cells; replicate 2): 31%; γH2AX foci per cell, n>10 (IMR90-progerin cells; replicate 3): 61%; γH2AX foci per cell, n≤10 (IMR90-progerin cells; replicate 3): 39%; γH2AX-53BP1 foci (IMR90-progerin cells; IMR90-progerin cells): lower level of γH2AX-53BP1 foci; interaction of PTBP1 and progerin [4]: weakened the interaction of PTBP1 and progerin; effect on proliferation of normal cells (IMR90 cells [5]): had little effect on proliferation of IMR90 cells; also recorded: no obvious effect on the proliferation of normal cells; PTBP1 nuclear membrane location cells (PTBP1 in HGADFN003 cells; replicate 1): 45%; PTBP1 nuclear membrane location cells (PTBP1 in HGADFN003 cells; replicate 2): 39%; PTBP1 nuclear membrane location cells (PTBP1 in HGADFN003 cells; replicate 3): 35%
